Consider nine compounds from patent publication US11407725B2 (The Board of Trustees of the University of Illinois, priority 2018, dated 2022).

One series is described as follows: Log D7.4. In kind it is physicochemical. The following applies: pH 7.4.
The test system of series [1] is e-CSC and non-CSC B16F0 tumors. As to the kind of experiment: In vivo melanoma tumor fluorescence imaging. Also noted: species or system mice. As to conditions: 1 and 2 weeks.
The next series relates to K562 cells. As to the kind of experiment: Trypan blue cytotoxicity / viability assay. In kind it is cell-based. How it is done:
K562 cells were plated in a 96-well plate with 50,000 cells per well. Each well was filled to a final volume of 100 μL IMDM media with 0.25% DMSO. Wells were tested using red-AlDeSense or Ctrl-red-AlDeSense (1 μM and 5 μM each) or using a DMSO control. After 6-, 12-, and 24-hour incubation periods at 37° C. and 5% CO2, a 10 μL sample was removed from each condition and combined with 10 μL 0.4% w/v trypan blue in PBS. Samples were incubated for 3 minutes at room temperature before being loaded on a hemocytometer where live and dead cells were counted. Conditions were tested in triplicate for each time point. Samples were analyzed on an EVOS digital inverted microscope using transmitted white light for brightfield imaging and the Cy5 filter cube for trypan blue visualization.
K562 cells were plated in a 96-well plate at a density of 500,000 cells/mL in full IMDM media supplemented with either 1 μM or […] AlDeSense AM. Equivalent samples were supplemented with 1 μM or […] as a vehicle control. At 6, 12, and 24 hours, a 10 μL sample was removed from each of the samples and mixed 1:1 with a 0.4% wt/volume trypan blue solution in PBS. Samples were incubated for 1 minute at room temperature before being loaded onto a hemocytometer where live and dead cells were counted. Each sample was made in triplicate for each time point.

Series [2] deals with e-CSC and non-CSC melanoma lung metastases. As to the kind of experiment: Ex vivo lung metastases imaging. In kind it is in vivo, mice. The following applies: lungs perfused ex vivo, day 7 and 11. On the procedure:
Six to eight-week-old female C57BL/6J mice were purchased from Jackson Laboratory. Experimental metastases were established by injecting 2×10^5 melanoma cells via lateral tail vein injection. Mice were euthanized at either 7- or 11-days post injection. Immediately after euthanization, their lungs were excised and perfused with about 1 mL of either 15 μM AlDeSense AM or 15 μM Ctrl-AlDeSense AM in PBS. Outer portions of the lungs were rinsed in 15 mL of PBS to remove blood or excess dyes. After 2 hours incubation at room temperature (25° C.), the lungs were imaged on the IVIS spectrum imaging system (Perkin Elmer). Data was processed using Living Image software (Version 4.1).

Series [3] in a line: Photophysical properties (absorbance, emission, extinction coefficient, quantum yield). In kind it is physicochemical. As to conditions: for Quantum Yield: Probes 1-8.
Series [4] deals with T1, ALDH1A1 (Homo sapiens, UniProt P00352).
T1 construct: made in house
T1 sequence (P00352 1-501): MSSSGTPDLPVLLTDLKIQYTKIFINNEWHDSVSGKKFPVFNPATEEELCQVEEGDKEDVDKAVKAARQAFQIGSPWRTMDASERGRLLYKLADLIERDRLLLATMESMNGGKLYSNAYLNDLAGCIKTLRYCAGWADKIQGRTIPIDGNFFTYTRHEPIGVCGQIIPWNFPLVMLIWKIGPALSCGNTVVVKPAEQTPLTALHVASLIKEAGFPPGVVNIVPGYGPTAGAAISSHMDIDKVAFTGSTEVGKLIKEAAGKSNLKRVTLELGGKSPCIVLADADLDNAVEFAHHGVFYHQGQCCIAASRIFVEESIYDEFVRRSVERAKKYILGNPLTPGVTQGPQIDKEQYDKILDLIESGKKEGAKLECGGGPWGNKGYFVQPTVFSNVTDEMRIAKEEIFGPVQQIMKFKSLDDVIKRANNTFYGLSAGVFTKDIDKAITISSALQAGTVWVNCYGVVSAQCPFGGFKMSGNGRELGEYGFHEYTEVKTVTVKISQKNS
The series can be described thus: Fluorescence turn-on of AlDeSense with recombinant ALDH1A1. In kind it is biochemical. As to conditions: fluorescent enhancement when treated with ALDH1A1; 1 μM probe. How it is done: Activation of AlDeSense was assessed using 20 units of each ALDH isoform. Activity was determined by activity measurements using each isoform's preferred substrate (1 unit=1 μmol substrate turned over/mol enzyme/min). Further details are in the supplementary information. All enzymatic reactions were performed in 50 mM triethanolamine buffer (pH 7.4, Thermo Fisher) with 2.5 mM NAD+(Alfa Aesar) and 5% v/v DMSO (Thermo Fisher) in a 1 mL quartz cuvette at room temperature.
AlDeSense activation was determined using fluorescence. Immediately before measurement, AlDeSense (1 μM) was added to a quartz cuvette. After vigorous mixing, the reaction was monitored at room temperature for 15 min. Fluorescence spectra were acquired according to following parameters: λex=498 nm, and emission range=505-580 nm. All scans were normalized to the signal from AlDeSense in 50 mM TEA and 2.5 mM NAD+(without enzyme). Endpoint measurements at 15 min were performed in triplicate and reported as the averages±standard deviation.

The nature of series [5]: pKa determination (pH profile of fluorescence). As to conditions: Britton-Robinson buffer.
Procedure: The fluorescence of 1 μM of each compound was measured in 40 mM Britton-Robinson buffer at pH 2-9 in 0.5 pH intervals. Each measurement was performed in triplicate. […] Error bars are ±standard deviation (SD).
Series [6] addresses T1, ALDH1A1. As to the kind of experiment: ALDH isoform selectivity of red probes: ALDH1A1. In kind it is biochemical. The following applies: for Enzyme Activity 1A1 / Enzymatic Turn On: Table 2; for Enzymatic Turn On: ALDH1A1, 2 μM dye. How it is done: (§1) Each ALDH isoform was added to a 50 mM triethanolamine solution (pH 7.4) containing 2.0 mM NAD^+ and 100 μM substrate at room temperature. Benzaldehyde was the substrate for ALDH3A1. Propanal was the substrate for all other isoforms. ALDH isoform activity was determined by monitoring the rate of NADH production through the increase in absorbance at 340 nm (ε=6220 M^−1cm^−1). For these assays, 1 unit is defined as the amount of enzyme that catalyzes the conversion of […] per minute. For every combination of dye and enzyme, 2 μM dye was preincubated with 2.0 mM NAD^+ in 50 mM triethanolamine solution (pH 7.4). The reaction was initiated by addition of 1 unit of ALDH. Dyes were excited at 590 nm, and fluorescence was measured continuously at 610 nm.

The target of a further series is T2, ALDH1A3 (Homo sapiens, UniProt P47895).
T2 construct: made in house
T2 sequence (P47895 1-512): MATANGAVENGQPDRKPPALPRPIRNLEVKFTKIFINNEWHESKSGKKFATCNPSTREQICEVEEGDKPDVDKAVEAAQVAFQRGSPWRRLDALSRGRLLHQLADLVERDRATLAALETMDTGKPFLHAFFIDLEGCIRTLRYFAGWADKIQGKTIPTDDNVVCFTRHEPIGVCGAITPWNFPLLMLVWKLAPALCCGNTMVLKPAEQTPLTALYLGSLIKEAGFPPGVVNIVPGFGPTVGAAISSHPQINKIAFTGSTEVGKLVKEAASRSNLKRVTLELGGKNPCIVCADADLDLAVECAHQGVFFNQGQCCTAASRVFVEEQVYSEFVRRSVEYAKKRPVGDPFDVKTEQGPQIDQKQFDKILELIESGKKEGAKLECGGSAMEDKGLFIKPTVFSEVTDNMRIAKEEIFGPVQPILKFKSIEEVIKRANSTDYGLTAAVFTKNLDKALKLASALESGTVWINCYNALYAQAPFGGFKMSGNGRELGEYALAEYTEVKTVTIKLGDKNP
As to the kind of experiment: ALDH isoform selectivity of red probes: ALDH1A3. In kind it is biochemical. As to conditions: for Enzyme Activity 1A3: Table 2. On the procedure:
as §1

A short description of series [7]: Stability of the fluorophore against water-mediated decomposition. In kind it is physicochemical.

Like-named read-outs stand apart in the source and are kept apart here.

In the case of `CC(=O)c1ccc(-c2c3cc(F)c(=O)cc-3oc3cc(O)c(F)cc23)c(C)c1` [Ctrl-AlDeSense], the logD – broadly, the decadic logarithm of the distribution of all forms, ionised or not, between an organic phase and buffer at a given pH – in “Log D7.4” was determined as 0.87. The “signal in e-CSC versus non-CSC tumors” value in [1] is listed as “did not show increased signal”. In addition, the “toxicity in cell viability assay” value with K562 cells (K562 cells, 6, 12 and 24 hours) is on record as “non-toxic”. Besides, the “fluorescence of e-CSC lungs versus non-CSC lungs” value in series [2] was “not statistically different”. In series [3], this compound registered a ε of 68000 M⁻¹ cm⁻¹. In addition, the λcm in [3] (Table 1) worked out at 518 nm. Besides, in series [3] (maximum absorbance), the λabs is listed as 496 nm. The compound further gave a ΦF in [3] (prior to activation) of 0.039. Also, the “Turn-on (fold)” value on ALDH1A1 [4] is given as 0 fold. Further, the pKa (commonly the negative logarithm of the acid dissociation constant) in [5] amounted to 4.47.

Turning to `CC(=O)c1cc(F)c(C2=C3C=CC(=O)C=C3[Si](C)(C)c3cc(O)ccc32)c(C)c1F` [Ctrl-red-AlDeSense, 10-(4-A cetyl-3,6-difluoro-2-methylphenyl)-7-hydroxy-5,5-dimethyldibenzo[b, e]silin-3(5H)-one], in the series with K562 cells, the “toxicity in cell viability assay” value is given as “nontoxic”.

For the compound `Cc1cc(C=O)ccc1C1=C2C=CC(=O)C=C2[Si](C)(C)c2cc(O)ccc21` [Probe 1, 4-(7-Hydroxy-5,5-dimethyl-3-oxo-3,5-dihydrodibenzo[b, e]silin-10-yl)-3-methylbenzaldehyde], at ALDH1A1 [6], the “turn-on response when treated with ALDH1A1” value (from here on “turn-on response when treated”) is listed as 1.7 fold, the “Enzyme Activity 1A1” value is given as “High” and the “Enzymatic Turn On” value came to 1.7. Further, the “Quantum Yield” value in [3] stood at 0.32. Besides, on ALDH1A3, the “selectivity ALDH1A1 versus ALDH1A3” value is recorded as “no longer selective for ALDH1A1” and the “Enzyme Activity 1A3” value is “Medium”.

Regarding `C[Si]1(C)C2=CC(=O)C=CC2=C(c2ccc(C=O)cc2F)c2ccc(O)cc21` [Probe 2, 3-Fluoro-4-(7-hydroxy-5,5-dimethyl-3-oxo-3,5-dihydrodibenzo[b, e]silin-10-yl)benzaldehyde], in series [7], the “stability against water-mediated decomposition of the fluorophore” value was “rapid decomposition”.

With `C[Si]1(C)C2=CC(=O)C=CC2=C(c2ccc(C=O)cc2[N+](=O)[O-])c2ccc(O)cc21` [Probe 4, 4-(7-Hydroxy-5,5-dimethyl-3-oxo-3,5-dihydrodibenzo[b, e]silin-10-yl)-3-nitrobenzaldehyde], the “Quantum Yield” value in series [3] was 0.00.

For the compound `Cc1cc(C=O)c(F)cc1C1=C2C=CC(=O)C=C2[Si](C)(C)c2cc(O)ccc21` [Probe 5, 2-Fluoro-4-(7-hydroxy-5,5-dimethyl-3-oxo-3,5-dihydrodibenzo[b, e]silin-10-yl)-5-methylbenzaldehyde], at ALDH1A1 [6], the “turn-on response when treated” value is recorded as 2.6 fold, the “Enzyme Activity 1A1” value is reported as “High” and the “Enzymatic Turn On” value stood at 2.6. For the same compound, the “Quantum Yield” value in series [3] is reported as 0.21. For the same compound, the “Enzyme Activity 1A3” value on ALDH1A3 is recorded as “Low”.

Turning to `C[Si]1(C)C2=CC(=O)C=CC2=C(c2c(F)cc(C=O)cc2F)c2ccc(O)cc21` [Probe 6, 3,5-Difluoro-4-(7-hydroxy-5,5-dimethyl-3-oxo-3,5-dihydrodibenzo[b, e]silin-10-yl)benzaldehyde], at ALDH1A1 [6], the “turn-on response when treated” value turned out to be 3.9 fold, the “Enzyme Activity 1A1” value is listed as “High” and the “Enzymatic Turn On” value was 3.9. Also, the “stability against water-mediated decomposition of the fluorophore” value in series [7] is “prevent water-mediated decomposition”. For the same compound, in series [3], the “Quantum Yield” value is on record as 0.13. Also, on ALDH1A3, the “selectivity ALDH1A1 versus ALDH1A3” value is on record as “exhibited cross-reactivity with ALDH1A3” and the “Enzyme Activity 1A3” value is listed as “High”.

On to `Cc1c(F)c(C=O)cc(F)c1C1=C2C=CC(=O)C=C2[Si](C)(C)c2cc(O)ccc21` [Probe 8, 2,5-Difluoro-4-(7-hydroxy-5,5-dimethyl-3-oxo-3,5-dihydrodibenzo[b, e]silin-0-yl)-3-methylbenzaldehyde], for which, at ALDH1A1 [6], the “Enzyme Activity 1A1” value was “High” and the “Enzymatic Turn On” value is 3.1. The “Quantum Yield” value in series [3] is recorded as 0.20. At ALDH1A3, the “selectivity ALDH1A1 versus ALDH1A3” value was “selectivity was eroded” and the “Enzyme Activity 1A3” value is given as “Medium”.

With `Cc1cc(C(=O)O)ccc1-c1c2cc(F)c(=O)cc-2oc2cc(O)c(F)cc12` [oxidized AlDeSense], the “toxicity in cell viability assay” value in the series on K562 cells (K562 cells, 6, 12 and 24 hours) was “non-toxic”.
